Measured values reported in patent publication US6972319B1, “Pituitary adenylate cyclase activating peptide (PACAP)receptor 3 (R3) agonists and their pharmacological methods of use” (priority 1999, dated 2005).
pEC50: −log10 of the molar value. No end group written: not given here.

Assays:
PACAP-R2 = molecular target: T1, PACAP-R2 (Homo sapiens, UniProt P32241); experiment: Cyclic AMP SPA on CHO cells transfected with PACAP-R2; format: cell-based; settings: cAMP SPA, concentration at which 50% of maximum PACAP27 activity is achieved, NA = no detectable activities, read-out: R2 EC50
T1 construct: expressed in transfected cells; host or cells: CHO cells
T1 sequence (P32241 31-457): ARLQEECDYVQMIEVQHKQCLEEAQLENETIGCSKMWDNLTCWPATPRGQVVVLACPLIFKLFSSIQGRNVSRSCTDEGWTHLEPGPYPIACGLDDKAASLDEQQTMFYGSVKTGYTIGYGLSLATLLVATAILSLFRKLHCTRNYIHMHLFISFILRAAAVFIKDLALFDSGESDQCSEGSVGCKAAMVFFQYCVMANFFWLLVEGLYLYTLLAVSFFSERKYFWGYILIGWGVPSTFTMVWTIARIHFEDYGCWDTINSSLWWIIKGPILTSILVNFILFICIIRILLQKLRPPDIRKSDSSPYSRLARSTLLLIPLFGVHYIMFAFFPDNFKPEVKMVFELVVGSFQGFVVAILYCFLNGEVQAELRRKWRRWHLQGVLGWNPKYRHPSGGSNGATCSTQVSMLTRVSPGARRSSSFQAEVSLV
In short: (§1)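 Potency reflects cyclic AMP accumulation, determined by SPA, after a 15 min, 37 C peptide exposure of CHO cells carrying the human receptor. Values are expressed relative to the maximal PACAP27 effect, with EC50 taken at its 50% level.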

[1] = Airway hyperresponsiveness in the primate acute asthma model; format: in vivo, cynomolgus monkeys (Macaca fascicularls); settings: for Delta log10 PC100, Mean, Treated: aerosol 10 minutes before Ascaris suum antigen challenge, +24 hr minus baseline, R3P0 0.6, R3P76 3.0, R3P82 1.8 ug/kg; for % Inhibition of induced AHR: treated vs control, R3P0 0.6, R3P76 3.0, R3P82 1.8 ug/kg by inhalation
Description: Male cynomolgus monkeys (Macaca fascicularls) used in this study were maintained at constant temperature and humidity with a twelve hour light cycle. They were fed twice daily, except on an experimental day when food was withheld the night before the procedure. Water was available ad lib at all times.
Airway hyperresponsiveness (AHR)(baseline) was measured 1 week before the control (no treatment) antigen challenge, and again 24 hrs after antigen challenge. Antigen-induced airway hyperresponsiveness was measured by a fall in the PC100 (the concentration of methacholine required to cause a 100% increase in lung resistance) at 24 hr compared to baseline. After 2 weeks rest, another baseline measurement of AHR was performed. One week later, peptides of this invention were administered as an aerosol, 10 minutes before antigen challenge. After 24 hrs, AHR was again measured, and the fall in PC100 with treatment was compared to that without treatment.
Experimental Procedure. On each experimental day animals were anaesthetized with a ketamine/xylazine mixture (70:12 mg kg^−1 @ 0.1 ml kg^−1) while still in their cage. When unconscious they were brought into the primate laboratory where they were placed in a supine position on a heated water blanket on a trolley. Ophthalmic ointment was wiped onto each eye, and 0.2 ml lidocaine (2%,) sprayed onto the larynx and over the back of the throat. The Jaws were held apart by a jaw spreader and a cuffed 5.0 gauge endotracheal tube (with the end liberally smeared with xylocaine gel, 2%) was inserted with the aid of laryngoscope. The animal was then placed into a specially designed restraint chair such that the animal was in a slightly reclined but upright sitting position, secured only by a collar at the neck. A water-heated blanket surrounded the animal.
The endotracheal tube was connected to a Harvard Ventilator adjusted to deliver 30-35 breaths per minute. Airflow was measured by a Fleisch pneumotachograph and thoracic pressure was measured by a validyne pressure transducer (as the difference between the pressure at the distal end of the et tube and room pressure).
The pneumotachograph and validyne were connected to a pre-amplifier and then into an MI^2 respiratory analyser. […]
Antigen challenge: This was an inhalation challenge with Ascaris suum. […] 30 breaths of antigen were administered after which the acute bronchoconstriction was monitored for 15 min. […]
Methacholine challenge: Methacholine dose response curves were carried out to assess the airway hyperresponsiveness. In the acute model, this was measured at +24 hour and compared to the responsiveness 7 days before treatment. […] The aerosol was administered for 15 breaths and then lung resistance was monitored for ten minutes. […]

PACAP-R3 [2] = molecular target: T2, PACAP-R3 (Homo sapiens, UniProt P41587); experiment: Cyclic AMP SPA on CHO cells expressing PACAP R3; format: cell-based; set-up: expressed in transfected cells; host or cells: CHO cells (Geneticin selection)
T2 sequence (P41587 24-438): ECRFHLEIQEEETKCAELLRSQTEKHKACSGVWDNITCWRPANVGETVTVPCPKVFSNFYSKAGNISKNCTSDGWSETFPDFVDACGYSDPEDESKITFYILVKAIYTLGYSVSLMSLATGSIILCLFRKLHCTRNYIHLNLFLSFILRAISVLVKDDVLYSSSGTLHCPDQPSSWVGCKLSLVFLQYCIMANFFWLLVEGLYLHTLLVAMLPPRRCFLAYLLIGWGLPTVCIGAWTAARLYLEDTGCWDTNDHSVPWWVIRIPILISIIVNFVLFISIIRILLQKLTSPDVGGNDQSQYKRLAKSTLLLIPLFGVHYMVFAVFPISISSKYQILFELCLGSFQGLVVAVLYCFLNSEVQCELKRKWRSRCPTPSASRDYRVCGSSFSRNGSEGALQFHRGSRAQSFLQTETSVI
In short: as §1

PACAP-R3 [3] = molecular target: T2, PACAP-R3; settings: literature (Gourlet et al., Xia et al.); b170: over R1 and R2; cited from earlier work

Molecule	pEC50 (PACAP-R2)	Delta log10 PC100, Mean, Treated [1]	% Inhibition of induced AHR [1] [%]	pEC50 (PACAP-R3 [2]; cAMP SPA, CHO cells transfected with PACAP-R3, concentration at which 50% of maximum PACAP27 activity is achieved, NA = no detectable activities, read-out: R3 EC50)	R3 Selectivity (PACAP-R3 [2]; ratio of EC50 at R2 versus EC50 at R3)	PACAP-R3 selectivity (PACAP-R3 [3]) [fold]
CC[C@H](C)[C@H](NC(=O)[C@@H](NC(=O)[C@H](CC(N)=O)NC(=O)[C@H](CC(C)C)NC(=O)[C@H](Cc1ccc(O)cc1)NC(=O)[C@H](Cc1c[nH]cn1)NC(=O)[C@H](CCCCN)NC(=O)[C@H](C)NC(=O)[C@H](C)NC(=O)[C@H](CC(C)C)NC(=O)[C@H](CCC(N)=O)NC(=O)[C@H](CCCCN)NC(=O)[C@H](CCCNC(=N)N)NC(=O)[C@H](CC(C)C)NC(=O)[C@H](CCCNC(=N)N)NC(=O)[C@@H](NC(=O)[C@H](Cc1ccc(O)cc1)NC(=O)[C@H](CCC(N)=O)NC(=O)[C@H](CC(=O)O)NC(=O)[C@@H](NC(=O)[C@H](Cc1ccccc1)NC(=O)[C@@H](NC(=O)[C@H](C)NC(=O)[C@H](CC(=O)O)NC(=O)[C@H](CO)NC(=O)[C@@H](N)Cc1c[nH]cn1)C(C)C)[C@@H](C)O)[C@@H](C)O)[C@@H](C)O)C(=O)N[C@@H](CCCCN)C(=O)N[C@@H](CC(N)=O)C(=O)N[C@@H](CCCCN)C(=O)N[C@@H](CCCNC(=N)N)C(=O)N[C@@H](Cc1ccc(O)cc1)C(=O)O [Peptide R3P76]	< 6.82	+0.047	100	–	–	–
HSDAVFTDNYTRLRKQVAVKKYLQSIKNKRY [Peptide R3P82]	8.00	−0.067	88	9.40	23	–
Helodermin	–	–	–	–	–	~100
